Laboratory results published in patent US20120295346A1, “METHODS AND COMPOSITIONS FOR MODULATING MEMBRANE POTENTIAL TO INFLUENCE CELL BEHAVIOR” (Tufts University, priority 2009, published 2012).
Entries after “also recorded” stand apart in the source; their conditions may differ.

How the values were obtained:
human melanocytes = assay: Imaging membrane voltage using CC2-DMPE and DiBAC4(3); assay type: cell-based; settings: high potassium media, CC2-DMPE and DiBAC4 dyes
Protocol: CC2-DMPE (N-(6-chloro-7-hydroxycoumarin-3-carbonyl)-dimyristoylphosphatidyl ethanolamine), a coumarin phospholipid, and DiBAC4(3) (bis-(1,3-dibutylbarbituric acid) trimethine oxonol) were purchased from Invitrogen. Stock CC2-DMPE solution was prepared according to manufacturer directions; briefly, a 5 mM stock (in DMSO) was prepared, aliquoted, and stored at −20° C. until immediately before use. DiBAC4(3) stock (1.9 mM in DMSO) was prepared and stored at room temperature. CC2-DMPE stock was dissolved 1:1000 directly into DMEM. DiBAC4(3) stock was dissolved 1:2 in DMSO, then spun at rcf 20,800 for 10 minutes to remove undissolved particles of dye. Supernate was then diluted 1:4000 in DMEM. 1 mL of CC2-DMPE is added to cells grown in 35 mm FluoroDish Sterile Culture Dishes. Cells are incubated for 30 minutes, then washed twice with plain DMEM. 1-2 mLs of DiBAC4(3) are then added to the dish. Cells are incubated at least 30 minutes before imaging begins; cells are imaged while in the DiBAC4(3) bath. A round coverslip is dropped into the dish, and any medium outside the well is removed. […]
An Olympus BX-61 equipped with a Hamamatsu ORCA AG CCD camera, and controlled by IPLabs, was used for imaging. […] No calibration was performed; nonetheless, pixel intensity within and among images can be compared for relative quantification. […]

[1] = system: human epidermal melanocytes; assay: Human melanocyte culture in high potassium media, proliferation and dendrite analysis; assay type: cell-based
Text: After finding that Xenopus melanocytes responded to modulations in membrane potential, we examined human epidermal melanocytes to assess the impact of membrane depolarization on cell phenotype. For these studies, ivermectin could not be used to depolarize the membrane because the culture medium used to maintain the cells has a much higher chloride ion concentration then that observed intracellularly in these particular cells. Thus, membrane potential was modulated by raising the extracellular potassium concentration by addition of potassium gluconate to the media.
Following two days of culture in 50 mM potassium gluconate supplemented media, human melanocytes developed a highly […] morphology, with a number of cells showing five or more such projections (compare FIGS. 6a and b). […] To verify that melanocytes grown in high potassium medium were in fact depolarized we made use of membrane voltage imaging using CC2-DMPE and DiBAC4 dyes, which allow visualization of the membrane potential (FIG. 6, d and e).
Human melanocytes were obtained commercially and cultured in DermaLife M Melanocyte culture medium (Lifeline Cell Technology, Walkersville, Md.). Cells were maintained within standard 50 ml culture flasks (BD Bioscience, San Jose, Calif.), and were fed with 10 ml warm media every other day. Upon reaching confluence, melanocytes were passaged using a standard trypsonization protocol, and new colonies were seeded at approximately 5,000 cells per cm^2.
For dendrite analysis, cells were imaged on a Nikon AZ100M stereo microscope and the numbers of dendrites on all cells within the field of vision were counted. Cell culture in high potassium media was repeated three times, and the results averaged for statistical analysis.

Xenopus embryos [2] = assay: Ivermectin-induced hyper-pigmentation with blockers of voltage sensitive pathways; assay type: in vivo; settings: for effect on ivermectin-induced hyper-pigmentation: with 10 μM ivermectin, 0.1 mM cadmium chloride, 0.1 mM verapamil, 50 mM lindane, 20 mM fluoxetine
Protocol: We next sought to examine how changes in membrane voltage are translated into downstream signaling. In order to determine the signaling molecules responding to ivermectin induced depolarization, we examined three known voltage sensitive pathways: calcium, serotonin, and gap junctions. We capitalized on the existence of drugs known to block each of these pathways to determine if any were downstream of ivermectin signaling.
Embryos were exposed to 10 μM ivermectin from stage 10 throughout development. […] The following methods were used in conducting the experiments detailed above.
(§1) Stocks of ivermectin (sigma) were kept at 10 mM concentration in DMSO. Embryo exposure occurred at a 1:1000 dilution (10 μM) in MMR for the stages indicated in each experiment. […] Stocks of strychnine were kept at 1 g in 6 ml of water; embryos were treated with 100 μl of stock in 10 ml of MMR. Drugs and media were replaced every 48 hours.

Xenopus embryos [3] = assay: Drug exposure of Xenopus embryos, hyper-pigmentation phenotype
Text: Ivermectin is known to open vertebrate GlyCl channels, resulting in chloride flux through the membrane (Schonrock, B., and Bormann, J. (1993) Naunyn Schmiedebergs Arch Pharmacol 348, 628-632; Shan, Q., Haddrill, J. L., and Lynch, J. W. (2001) J Biol Chem 276, 12556-12564.).
Xenopus embryos were collected according to standard protocols (Sive, Grainger et al. 2000) in 0.1× Modified Marc's Ringers (MMR) pH 7.8+0.1% Gentamycin. Xenopus embryos were staged according to Nieuwkoop and Faber 1967.
as §1

melanocytes = assay: Melanocyte counts in ivermectin-exposed Xenopus embryos; assay type: in vivo
Protocol: We examined whether there is a critical period of ivermectin exposure required for hyperpigmentation. […] One set of animals was exposed to 10 μM ivermectin from stages 10-24 (gastrulation through the completion of neurulation), while the second set were exposed from stages 28-46 (tailbud through tadpole). Early exposed embryos were washed 3× in 0.5×MMR post exposure and transferred to a new dish to remove all drug from the environment.
In order to evaluate the number of melanocytes between treatments, early vs. late exposed embryos were anesthetized in tricane, and then photographed. We then counted the number of melanocytes within the eye region (FIG. 2A, B), and compared each treatment to age-matched control siblings. […] In comparison, embryos exposed to ivermectin during gastrulation and neurogenesis, the time when a subset of neural crest cells become fated to differentiate along a melanocyte fate, show a 1.5 fold increase in melanocyte number compared to controls (FIG. 2C).
Melanocytes were counted by cellAnalyst software (AssaySoft, Inc) on digital photographs of anesthetized larvae. Adobe Illustrator (Adobe Systems Inc) was used to define the dorsal region between the eyes used for counting. Tail regions were defined using digital photographs, starting at the most posterior tip of the tail and counting all melanocytes within a 400 pixel square bounding box extending anteriorly.

Xenopus embryos [4] = assay: Ivermectin exposure in MMR with varying levels of chloride; assay type: in vivo; settings: for % hyper-pigmented / Hyper-pigmented (number of embryos) / Normal pigmentation (number of embryos): 10 μM ivermectin from stage 10
Protocol: We next sought to determine whether the alteration of melanocyte behavior was due to GlyCl-dependent changes in transmembrane potential. The intracellular concentration of chloride in an embryo is approximately 60 mM while the extracellular concentration of Modified Marc's Ringers (MMR), the solution in which the embryos are maintained, is 10 mM. If ivermectin constitutively opens chloride channels, ivermectin treatment would be expected to cause an efflux of Cl^− ions, thus resulting in depolarization of the cell membrane. Conversely, if the concentration of external chloride were raised above intracellular levels, chloride ions would enter cells following treatment with ivermectin, thus maintaining a hyperpolarized membrane potential. To test this hypothesis, we raised the concentration of chloride in the extracellular MMR media to 30 mM, 60 mM, or 90 mM and examined the resulting phenotype following ivermectin exposure.
Embryos were exposed to the chloride activator ivermectin (10 μM) from stage 10 throughout development in MMR containing varying levels of chloride.
as §1

[5] = older tadpoles (beyond stage 46) exposed to ivermectin
[6] = ivermectin from gastrulation throughout development
[7] = 10 μM ivermectin from stage 10 throughout development, second drug concurrently

Q: Which “membrane potential of treated cells compared to controls” value (human melanocytes) does the source give for O=C([O-])[C@H](O)[C@@H](O)[C@H](O)[C@H](O)CO.[K+] [potassium gluconate] here?
A: depolarization

Q: And the “effect on growth in potassium dose response screen” value ([1]; 40 mM potassium gluconate)?
A: non-inhibitory to growth

Q: What about the “cell proliferation, standard vs high potassium media” value ([1]; 50 mM potassium gluconate supplemented media) of the same compound?
A: No measurable differences in cell proliferation

Q: And the “dendricity / number of projections of melanocytes” value ([1]; 50 mM potassium gluconate supplemented media, two days of culture)?
A: significant effect on the number of projections; also recorded: significant effect of potassium gluconate on dendricity

Q: How did the “effect on ivermectin-induced hyper-pigmentation” value (Xenopus embryos [2]) turn out when [Cl][Cd][Cl] [cadmium chloride] was run?
A: did not result in any reduction; also recorded: did not inhibit hyper-pigmentation

Q: How did the “effect on ivermectin-induced hyper-pigmentation” value (Xenopus embryos [2]) turn out when CNCCC(Oc1ccc(C(F)(F)F)cc1)c1ccccc1 (stereo not shown) [fluoxetine] was run?
A: blocked ivermectin-induced hyper-pigmentation in all of the treated embryos; also recorded: completely inhibited

Q: Which hyper-pigmentation phenotype (Xenopus embryos [3]; 3 mM glycine, exposure throughout development) does the source give for NCC(=O)O [glycine] here?
A: induced the same hyperpigmented phenotype as ivermectin; also recorded: induces hyper-pigmentation at a similar level to ivermectin exposure

Q: Which “effect on ivermectin-induced hyper-pigmentation” value (Xenopus embryos [2]) does the source give for Cl[C@H]1[C@H](Cl)[C@@H](Cl)[C@@H](Cl)[C@H](Cl)[C@H]1Cl [lindane] here?
A: did not result in any reduction

Q: What about the “effect on ivermectin-induced hyper-pigmentation” value (Xenopus embryos [2]; listed as lindine) of the same compound?
A: did not inhibit hyper-pigmentation

Q: What does the source list for ivermectin?
A: increase in melanocyte number in eye field relative to controls (melanocytes; 10 μM ivermectin, early exposure stages 10-24): 1.5 fold; melanocyte number in eye field relative to controls (melanocytes; 10 μM ivermectin, late exposure stages 28-46, at stage 46): do not show a significant increase; also recorded: no detectible difference; increase in melanocyte counts in the tip of the tail (melanocytes; ivermectin throughout development): 1.5 fold; generation of more melanocytes (melanocytes; [5]): do not appear to generate more melanocytes; time to expansion of pigment cells (melanocytes; [5]): ≤ 24 h; % hyper-pigmented (Xenopus embryos [4]; 10 mM Cl−): 100%; Hyper-pigmented (number of embryos) (Xenopus embryos [4]; 10 mM Cl−): 25; Normal pigmentation (number of embryos) (Xenopus embryos [4]; 10 mM Cl−): 0; % hyper-pigmented (Xenopus embryos [4]; 30 mM Cl−): 95.8%; Hyper-pigmented (number of embryos) (Xenopus embryos [4]; 30 mM Cl−): 23; Normal pigmentation (number of embryos) (Xenopus embryos [4]; 30 mM Cl−): 1; % hyper-pigmented (Xenopus embryos [4]; 60 mM Cl−): 21.7%; Hyper-pigmented (number of embryos) (Xenopus embryos [4]; 60 mM Cl−): 5; Normal pigmentation (number of embryos) (Xenopus embryos [4]; 60 mM Cl−): 18; % hyper-pigmented (Xenopus embryos [4]; 90 mM Cl−): 0%; Hyper-pigmented (number of embryos) (Xenopus embryos [4]; 90 mM Cl−): 0; Normal pigmentation (number of embryos) (Xenopus embryos [4]; 90 mM Cl−): 32; ivermectin hyper-pigmentation phenotype in words (Xenopus embryos [4]; extracellular chloride 10 mM): strong hyper-pigmentation; ivermectin hyper-pigmentation phenotype in words (Xenopus embryos [4]; extracellular chloride 30 mM): did not inhibit hyper-pigmentation; also recorded: strong hyper-pigmentation; ivermectin hyper-pigmentation phenotype in words (Xenopus embryos [4]; extracellular chloride 60 mM): suppressed; also recorded: partial inhibition; ivermectin hyper-pigmentation phenotype in words (Xenopus embryos [4]; extracellular chloride 90 mM): completely inhibited; also recorded: complete inhibition; melanocyte morphology compared to wild type siblings (Xenopus embryos [3]; [6]): take on a dendritic morphology; other disruptions of normal development (Xenopus embryos [3]; [6]): not accompanied by any other observable disruptions of normal development; treated embryos/larvae developing hyper-pigmentation (Xenopus embryos [3]; [6]): 98%; incidence of hyper-pigmentation in words (Xenopus embryos [2]; 10 μM ivermectin alone): strong incidence of hyper-pigmentation; % hyper-pigmented (Xenopus embryos [2]; [7]): 95.3%; Hyper-pigmented tadpoles (number) (Xenopus embryos [2]; [7]): 61; WT tadpoles (number) (Xenopus embryos [2]; [7]): 3
